Assays:
[1] = Pharmacokinetic screening in male CD-1 mice; assay type: in vivo; conditions: mouse; for C0: read-out: IV PK C0; for Vd: read-out: IV PK Vss; for bioavailability: read-out: Oral PK % F; for Cmax: read-out: Oral PK Cmax; for Tmax: read-out: Oral PK T max
Description: (§1) In this example, the PK profile of several PPARδ agonists disclosed herein in male CD-1 mice or Wistar rats was determined by the methods disclosed in Boxenbaum H. (1980) Interspecies variation in liver weight, hepatic blood flow and antipyrine intrinsic clearance in extrapolation of Benzodiazepines and phenytoin. J. Pharmacokinet Biopharm 8: 165-176. Similar methods can be used to analyze other compounds provided herein.
(§2) All compounds were separately administered to CD-1 mice at 1 mg/kg iv or 3 mg/kg po. The compounds were separately administered to male Wistar rats 1 mg/kg iv or 3 mg/kg po. The species M refers to mouse and R reports to rat in the following table. NA means not available.

[2] = Pharmacokinetic screening in male Wistar rats; conditions: in vivo, rat; for C0: read-out: IV PK C0; for clearance: read-out: IV PK Cl; for Vd: read-out: IV PK Vss; for bioavailability: 3.0 mpk po vs 1.0 mpk iv, read-out: Oral PK % F; for Cmax: read-out: Oral PK Cmax; for Tmax: read-out: Oral PK T max
Description: as §1, §2

hERG = molecular target: T1, hERG (Homo sapiens, UniProt Q12809); assay: hERG inhibition screen (patch clamp, peak hERG tail current); assay type: cell-based; conditions: for inhibition at 10 µM: human
T1 construct: expressed in transfected cells
Description: Cells were cultured in DMEM/F-12 medium supplemented with 10% fetal bovine serum and 400 μg/mL Geneticin. Cells were grown in 75 cm tissue culture flasks maintained at 37° C. with 5% CO2 and passaged every 3 days using 0.05/0.02% Trypsin/EDTA (confluency of <80%). For the purpose of electrophysiology, cells were seeded in 25 cm2 tissue culture flasks. Three day old cells were harvested using Trypsin/EDTA (0.025/0.01%) as detaching agent and resuspended in external recording solution.
Preweighed quantity of test item was dissolved in tissue culture grade DMSO to prepare a primary stock solution. The strength of the primary stock was 1000× of the intended highest test concentration. Subsequently, working stock solutions of appropriate strengths was prepared by dilution of primary stock with DMSO. The stock solutions were aliquoted into eppendorff tubes and stored at −20° C. freezer (<0° C.) until use. On the day of experiment, aliquots were thawed and used for preparing the assay solution (test solution).
Test solutions were prepared fresh by adding 4 μL of stock solution in to 3996 μL external recording solution such that the final DMSO concentration in the assay solution was 0.1% v/v. Upon addition, solution was inspected carefully against light by naked eye for any indications of precipitation.
Electrophysiological Procedures: • Electrophysiology Setup: Instrument: Port-A-Patch • Patch clamp type: Semiautomatic • Manufacturer: Nanion technologies, GmBH Germany • Electrophysiology chips: Glasscoated NPC-1 chips • Recording Condition: Room temperature • Compound Addition Protocol: Manual addition—20 μL of solution was added on one side of the chip, followed by withdrawal of 20 μL from the other side. This way of addition and withdrawal was repeated at least 4-5 times to ensure actual test concentration is reached. • Test Concentration Exposure Period: Cells were exposed to each test concentration for 3 min or till a steady state block was reached • Voltage Protocol: −40 mV subtraction pulse for 0.5 sec; +40 mV activation pre-pulse for 2 sec; −40 mV test pulse for 2 sec and −80 mV holding potential repeated at every 10 sec • Assay end point: Peak hERG tail current recorded when the voltage was reduced from +40 mV to −40 mV.
The steady state current after the application of 0.1% DMSO was considered as baseline (control current). Steady state current obtained at the end of each test concentration addition was used to calculate the % hERG current inhibited at each concentration. Any rundown due to vehicle addition was corrected to calculate % hERG current inhibition. Each cell acted as its own control. Average current of last 3-5 sweeps of acceptable quality was considered for calculation of % inhibition. Sweeps with artifacts and noise were omitted while calculation.

Human PPARδ = molecular target: T2, Human PPARδ (Homo sapiens, UniProt Q03181); assay: PPARδ activity screen (GAL4-PPARδ LBD luciferase transactivation in CV-1 cells); assay type: cell-based; conditions: 24 h compound treatment, luciferase reporter
T2 construct: (PPARδ amino acid 128 to C-terminus); expressed in transfected cells; host or cells: CV-1 cells
T2 sequence (Q03181 128-441 limits assumed): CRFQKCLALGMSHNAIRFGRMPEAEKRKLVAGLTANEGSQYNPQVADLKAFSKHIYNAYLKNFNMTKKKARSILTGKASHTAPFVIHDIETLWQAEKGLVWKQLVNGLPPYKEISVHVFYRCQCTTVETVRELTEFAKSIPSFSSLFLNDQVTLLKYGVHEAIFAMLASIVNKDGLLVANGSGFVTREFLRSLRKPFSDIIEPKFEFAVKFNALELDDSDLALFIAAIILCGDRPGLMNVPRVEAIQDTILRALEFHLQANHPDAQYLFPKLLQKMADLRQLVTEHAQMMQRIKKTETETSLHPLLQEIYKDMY
Description: CV-1 cells were grown in DMEM+10% charcoal stripped FCS. Cells were seeded into 384-well plates the day before transfection to give a confluency of 50-80% at transfection. A total of […] containing 0.64 micrograms pCMX-PPARDelta LBD, 0.1 micrograms pCMXβGal, 0.08 micrograms pGLMH2004 reporter and 0.02 micrograms pCMX empty vector was transfected per well using FuGene transfection reagent according to the manufacturer's instructions (Roche). Cells were allowed to express protein for 48 h followed by addition of compound.
Human PPARδ was used to PCR amplify the PPARδ LBD. […] Ensuing fusions were verified by sequencing.
All compounds were dissolved in DMSO and diluted 1:1000 upon addition to the cells. Compounds were tested in quadruple in concentrations ranging from 0.001 to 100 μM. Cells were treated with compound for 24 h followed by luciferase assay. […]
Medium including test compound was aspirated and washed with PBS. […] Light emission was quantified by counting on a Perkin Elmer Envision reader. […] Beta-galactosidase assays were performed in the microwell plates using a kit from Promega and read in a Perkin Elmer Envision reader. […]
The activity of a compound is calculated as fold induction compared to an untreated sample. […] EC50 values were calculated via non-linear regression using GraphPad PRISM (GraphPad Software, San Diego, Calif.).

[3] = male, CD-1, in vivo, 1 mg/kg, 1.0 mpk iv, read-out: IV PK AUC (0-inf)
[4] = male, CD-1, in vivo, 1 mg/kg, 1.0 mpk iv
[5] = male, CD-1, in vivo, 3 mg/kg, 3.0 mpk po vs 1.0 mpk iv
[6] = male, CD-1, in vivo, 3 mg/kg, 3.0 mpk po, read-out: Oral PK AUC (0-inf)
[7] = male, CD-1, in vivo, 3 mg/kg, 3.0 mpk po
[8] = male, CD-1, in vivo, 3 mg/kg, 3.0 mpk po, read-out: Oral PK T½ (converted)
[9] = 1 mg/kg, 1.0 mpk iv, read-out: IV PK AUC (0-inf)
[10] = 1 mg/kg, 1.0 mpk iv, read-out: IV PK Beta T½ (converted)
[11] = 3 mg/kg, 3.0 mpk po, read-out: Oral PK AUC (0-inf)
[12] = male, CD-1, in vivo, 1 mg/kg, 1.0 mpk iv, read-out: IV PK Beta T½ (converted)
[13] = 3 mg/kg, 3.0 mpk po, read-out: Oral PK T½ (converted)

T1 sequence (Q12809 whole entry): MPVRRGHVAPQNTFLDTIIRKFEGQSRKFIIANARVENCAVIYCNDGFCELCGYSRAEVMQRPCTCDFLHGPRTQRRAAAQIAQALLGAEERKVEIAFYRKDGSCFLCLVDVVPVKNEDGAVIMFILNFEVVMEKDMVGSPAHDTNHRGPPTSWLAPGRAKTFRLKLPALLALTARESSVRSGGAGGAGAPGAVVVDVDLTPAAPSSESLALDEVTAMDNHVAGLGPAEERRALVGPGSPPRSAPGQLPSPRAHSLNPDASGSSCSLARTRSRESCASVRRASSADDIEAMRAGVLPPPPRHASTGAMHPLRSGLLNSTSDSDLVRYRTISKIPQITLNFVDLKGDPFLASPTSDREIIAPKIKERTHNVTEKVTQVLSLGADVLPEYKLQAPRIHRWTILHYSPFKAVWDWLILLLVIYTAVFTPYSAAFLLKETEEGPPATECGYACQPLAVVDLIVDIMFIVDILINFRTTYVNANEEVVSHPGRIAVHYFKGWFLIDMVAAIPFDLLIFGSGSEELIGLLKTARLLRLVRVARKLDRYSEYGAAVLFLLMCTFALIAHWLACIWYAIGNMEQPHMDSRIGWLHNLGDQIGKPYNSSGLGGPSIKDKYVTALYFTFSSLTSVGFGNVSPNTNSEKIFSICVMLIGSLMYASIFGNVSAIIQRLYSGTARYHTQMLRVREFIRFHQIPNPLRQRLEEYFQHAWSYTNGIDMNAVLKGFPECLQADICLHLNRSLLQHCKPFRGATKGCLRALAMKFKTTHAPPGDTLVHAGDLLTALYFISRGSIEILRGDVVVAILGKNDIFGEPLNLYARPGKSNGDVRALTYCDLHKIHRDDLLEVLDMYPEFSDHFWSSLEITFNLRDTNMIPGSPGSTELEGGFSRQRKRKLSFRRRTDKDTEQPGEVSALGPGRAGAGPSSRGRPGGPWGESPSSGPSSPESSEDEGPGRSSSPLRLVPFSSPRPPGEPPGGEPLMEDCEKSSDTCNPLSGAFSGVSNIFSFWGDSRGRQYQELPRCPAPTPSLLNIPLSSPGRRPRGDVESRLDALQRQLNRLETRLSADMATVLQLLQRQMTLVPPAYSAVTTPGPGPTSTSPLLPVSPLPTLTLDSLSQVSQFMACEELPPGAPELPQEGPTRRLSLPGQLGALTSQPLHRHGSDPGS

| SMILES | AUC(0-inf) [1, 3] [ng·h/mL] | C0 [1, 4] [ng/mL] | Vd [1, 4] [L/kg] | bioavailability [1, 5] [%] | AUC(0-inf) [1, 6] [ng·h/mL] | Cmax [1, 7] [ng/mL] | Tmax [1, 7] [h] | half-life [1, 8] [h] | IV PK Cl ([1]; 1.0 mpk iv) [mL/min/kg] | AUC(0-inf) [2, 9] [ng·h/mL] | C0 ([2]; 1 mg/kg, 1.0 mpk iv) [ng/mL] | clearance ([2]; 1 mg/kg, 1.0 mpk iv) [mL/min/kg] | Vd ([2]; 1 mg/kg, 1.0 mpk iv) [L/kg] | bioavailability ([2]; 3 mg/kg) [%] | AUC(0-inf) [2, 11] [ng·h/mL] | Cmax ([2]; 3 mg/kg, 3.0 mpk po) [ng/mL] | Tmax ([2]; 3 mg/kg, 3.0 mpk po) [h] | half-life [1, 12] [h] | inhibition at 10 µM (hERG) [%] | hERG % Inhibition at 10 μM (hERG) [%] | further results |
| --- | --- | --- | --- | --- | --- | --- | --- | --- | --- | --- | --- | --- | --- | --- | --- | --- | --- | --- | --- | --- | --- |
| C[C@H](CCCOc1ccccc1Cn1c(C(F)(F)F)cnc1-c1ccc(C(F)(F)F)cc1)CC(=O)O [Compound 2a, (3R)-3-methyl-6-(2-((5-(trifluoromethyl)-2-(4-(trifluoromethyl)phenyl)-1H-imidazol-1-yl)methyl)phenoxy)hexanoic acid] | 3310 | 740 | 1.9 | 70 | 6960 | 1260 | 0.3 | 3.8 | 5.0 | 5040 | 1530 | 3.8 | 1.7 | 100 | 16100 | 1200 | 2.8 |  | 6 |  | IV PK Beta T½ ([1]; 1.0 mpk iv): 5.8 h; half-life [2, 10]: 7.1 h |
| C[C@H](CCCOc1ccccc1Cn1c(Cl)cnc1-c1ccc(C(F)(F)F)cc1)CC(=O)O [Compound 2b, (R)-6-(2-((5-chloro-2-(4-(trifluoromethyl)phenyl)-1H-imidazol-1-yl)methyl)phenoxy)-3-methylhexanoic acid] | 1060 | 810 | 3.1 | 100 | 3880 | 2950 | 0.5 | 4.3 | 16 | 2970 | 2120 | 5.8 | 1.2 | 87 | 7790 | 2380 | 0.3 | 3.5 |  | 3.00 | half-life [2, 10]: 4.8 h; half-life [2, 13]: 4.1 h |
| C[C@H](CCCOc1ccccc1Cn1c(C#N)cnc1-c1ccc(C(F)(F)F)cc1)CC(=O)O [Compound 2c, (3R)-6-(2-((5-cyano-2-(4-(trifluoromethyl)phenyl)-1H-imidazol-1-yl)methyl)phenoxy)-3-methylhexanoic acid] |  |  |  |  |  |  |  |  |  |  |  |  |  |  |  |  |  |  |  | 2.50 |  |
| C[C@H](CCCOc1ccccc1Cn1c(C(F)(F)F)cnc1-c1ccc(F)cc1)CC(=O)O [Compound 2e, (3R)-6-(2-((2-(4-fluorophenyl)-5-(trifluoromethyl)-1H-imidazol-1-yl)methyl)phenoxy)-3-methylhexanoic acid] |  |  |  |  |  |  |  |  |  |  |  |  |  |  |  |  |  |  |  |  | EC50 (Human PPARδ): 0.025 µM |
| C[C@H](CCCOc1ccccc1Cn1c(C(F)(F)F)cnc1-c1ccc(OC(F)(F)F)cc1)CC(=O)O [Compound 2g, (3R)-3-methyl-6-(2-((2-(4-(trifluoromethoxy)phenyl)-5-(trifluoromethyl)-1H-imidazol-1-yl)methyl)phenoxy)hexanoic acid] |  |  |  |  |  |  |  |  |  |  |  |  |  |  |  |  |  |  |  | 2.00 |  |
| O=C(O)CCCCCOc1ccccc1Cn1c(C(F)(F)F)cnc1-c1ccc(-c2ccco2)cc1 [Compound 2h, 6-(2-((2-(4-(furan-2-yl)phenyl)-5-(trifluoromethyl)-1H-imidazol-1-yl)methyl)phenoxy)hexanoic acid] |  |  |  |  |  |  |  |  |  |  |  |  |  |  |  |  |  |  | 7 |  | EC50 (Human PPARδ): 0.002 µM |
| C[C@H](CCCOc1ccccc1Cn1c(C(F)(F)F)cnc1-c1ccc(-c2ccco2)cc1)CC(=O)O [Compound 2i, (3R)-6-(2-((2-(4-(furan-2-yl)phenyl)-5-(trifluoromethyl)-1H-imidazol-1-yl)methyl)phenoxy)-3-methylhexanoic acid] |  |  |  |  |  |  |  |  |  |  |  |  |  |  |  |  |  |  |  | 2.30 |  |

Now from value to compound, other results behind:

| AUC(0-inf) [1, 3] [ng·h/mL] | C0 [1, 4] [ng/mL] | Vd [1, 4] [L/kg] | bioavailability [1, 5] [%] | AUC(0-inf) [1, 6] [ng·h/mL] | Cmax [1, 7] [ng/mL] | Tmax [1, 7] [h] | half-life [1, 8] [h] | IV PK Cl ([1]; 1.0 mpk iv) [mL/min/kg] | AUC(0-inf) [2, 9] [ng·h/mL] | C0 ([2]; 1 mg/kg, 1.0 mpk iv) [ng/mL] | clearance ([2]; 1 mg/kg, 1.0 mpk iv) [mL/min/kg] | Vd ([2]; 1 mg/kg, 1.0 mpk iv) [L/kg] | bioavailability ([2]; 3 mg/kg) [%] | AUC(0-inf) [2, 11] [ng·h/mL] | Cmax ([2]; 3 mg/kg, 3.0 mpk po) [ng/mL] | Tmax ([2]; 3 mg/kg, 3.0 mpk po) [h] | half-life [1, 12] [h] | SMILES | inhibition at 10 µM (hERG) [%] | hERG % Inhibition at 10 μM (hERG) [%] | further results |
| --- | --- | --- | --- | --- | --- | --- | --- | --- | --- | --- | --- | --- | --- | --- | --- | --- | --- | --- | --- | --- | --- |
| 5620 | 1720 | 1.4 | 61 | 5620 | 2830 | 0.3 | 10 |  |  |  |  |  |  |  |  |  | 6.3 | C[C@H](CCCOc1ccccc1Cn1c(C(F)(F)F)cnc1-c1ccc(Cl)cc1)CC(=O)O [Compound 2d, (3R)-6-(2-((2-(4-chlorophenyl)-5-(trifluoromethyl)-1H-imidazol-1-yl)methyl)phenoxy)-3-methylhexanoic acid] |  | 5.00 | clearance ([1]; male, CD-1, in vivo, 1 mg/kg, 1.0 mpk iv, read-out: IV PK Cl): 5.4 mL/min/kg |
| 6730 | 2450 | 0.6 |  | 14700 | 4240 | 0.3 | 4.9 | 2.5 | 4090 | 1820 | 3 | 3.9 | 100 | 14900 | 4330 | 0.3 | 4.1 | C[C@H](CCCOc1ccccc1Cn1c(C(F)(F)F)cnc1-c1ccc(C#N)cc1)CC(=O)O [Compound 2f, (R)-6-(2-((2-(4-cyanophenyl)-5-(trifluoromethyl)-1H-imidazol-1-yl)methyl)phenoxy)-3-methylhexanoic acid] | 3.5 |  | Oral PK % F ([1]; 3.0 mpk po vs 1.0 mpk iv): 73%; half-life [2, 13]: 10.3 h |

— patent US11358954B2, “PPAR agonists, compounds, pharmaceutical compositions, and methods of use thereof” (Mitobridge, Inc., priority 2016, dated 2022)
